In patent US11136301B2, “Broad spectrum antiviral compounds and uses thereof” (The Regents Of The University Of California, priority 2015, dated 2021):
Read-outs that look alike come from different tables or passages of the source.

Columns and labels:
[1] = tested on: wild-type HIV-1 (HIV-1LAI) in MT-4 cells (permissive); test: Antiviral activity assay: wild-type HIV-1 in permissive MT4 cells, reverse transcriptase activity in culture supernatants; type: cell-based
[2] = tested on: wild-type HIV-1 (HIV-1LAI) in H9 cells (non-permissive); test: microbe, parasite or virus in culture; type: cell-based
[3] = Human immunodeficiency virus 1, MT4, Table 2, wild-type HIV-1, permissive MT4 cells, read-out: Antiviral activity (IC50 μM) MT4
[4] = Human immunodeficiency virus 1, MT4, wild-type HIV-1 (HIV-1LAI), MT4 cells (permissive), RT activity in culture supernatants, compounds 1 to 50 μM, read-out: Antiviral activity (IC50 μM) MT4 cells
[5] = Human immunodeficiency virus 1, H9, read-out: Antiviral activity (IC50 μM) H9, Table 2, wild-type HIV-1, non-permissive H9 cells
[6] = Human immunodeficiency virus 1, H9, read-out: Antiviral activity (IC50 μM) H9 Cells, Table 4, wild-type HIV-1, non-permissive H9 cells
[7] = Human immunodeficiency virus 1, H9, read-out: Antiviral activity (IC50 μM) H9 Cells, Table 7, wild-type HIV-1, non-permissive H9 cells
[8] = Human immunodeficiency virus 1, H9, read-out: Antiviral activity (IC50 μM) H9 cells, Table 5, wild-type HIV-1, non-permissive H9 cells
[9] = Human immunodeficiency virus 1, H9, read-out: Antiviral activity (IC50 μM) H9 cells, Table 8, wild-type HIV-1, non-permissive H9 cells
[10] = Human immunodeficiency virus 1, H9, read-out: Antiviral activity (IC50 μM) H9 cells, wild-type HIV-1 (HIV-1LAI), H9 cells (non-permissive), RT activity in culture supernatants, compounds 1 to 50 μM
[11] = Human immunodeficiency virus 1, H9, read-out: IC50, anti-HIV-1 activity, non-permissive H9 cells

Structure (SMILES) | IC50 [1, 3] [µM] | IC50 [1, 4] [µM] | IC50 [2, 5] [µM] | IC50 [2, 6] [µM] | IC50 [2, 7] [µM] | IC50 [2, 8] [µM] | IC50 [2, 9] [µM] | IC50 [2, 10] [µM] | IC50 [2, 11] [µM]
COc1cccc(-n2cc(-c3ccccc3S(=O)(=O)c3ccc(C(=O)O)cc3)nn2)c1OC [Compound 3fy, 4-((2-(1-(2,3-Dimethoxyphenyl)-1H-1,2,3-triazol-4-yl)phenyl)sulfonyl)benzoic Acid] | > 50 | > 50 | 1.4 | 1.4 | 1.4 | 1.4 | 1.4 | 1.4 | 1 to 3
COc1ccc(-n2cc(-c3ccccc3S(=O)(=O)c3ccc([N+](=O)[O-])cc3)nn2)c(OC)c1 [Compound 4ay, 1-(2,4-Dimethoxyphenyl)-4-(2-((4-nitrophenyl)sulfonyl)phenyl)-1H-1,2,3-triazole] | > 50 | > 50 | > 50 | – | – | > 50 | > 50 | > 50 | –
COc1ccc(S(=O)(=O)c2ccccc2-c2cn(-c3ccc(OC)cc3OC)nn2)cc1 [Compound 4cy, 1-(2,4-Dimethoxyphenyl)-4-(2-((4-methoxyphenyl)sulfonyl)phenyl)-1H-1,2,3-triazole] | > 50 | > 50 | > 50 | – | – | > 50 | > 50 | > 50 | –
COc1ccc(-n2cc(-c3ccccc3S(=O)(=O)c3ccc(C(F)(F)F)cc3)nn2)c(OC)c1 [Compound 4dy, 1-(2,4-Dimethoxyphenyl)-4-(2-((4-(trifluoromethyl)phenyl)sulfonyl)phenyl)-1H-1,2,3-triazole] | > 50 | > 50 | 12 | 12 | 12 | 12 | 12 | 12 | –
COc1ccc(-n2cc(-c3ccccc3Sc3ccc(C(=O)O)cc3)nn2)c(OC)c1 [Compound 4fx, 4-((2-(1-(2,4-Dimethoxyphenyl)-1H-1,2,3-triazol-4-yl)phenyl)thio)benzoic Acid] | > 50 | > 50 | 7.1 | 7.1 | 7.1 | 7.1 | 7.1 | 7.1 | –
COC(=O)c1ccc(S(=O)(=O)c2ccccc2-c2cn(-c3cc(OC)ccc3OC)nn2)cc1 [Compound 5by, Methyl 4-((2-(1-(2,5-dimethoxyphenyl)-1H-1,2,3-triazol-4-yl)phenyl)sulfonyl)benzoate] | > 50 | > 50 | 4.6 | 4.6 | 4.6 | 4.6 | 4.6 | 4.6 | –
COc1ccc(Sc2ccccc2-c2cn(-c3cc(OC)ccc3OC)nn2)cc1 [Compound 5cx, 1-(2,5-Dimethoxyphenyl)-4-(2-((4-methoxyphenyl)thio)phenyl)-1H-1,2,3-triazole] | > 50 | > 50 | 15.7 | 15.7 | 15.7 | 15.7 | 15.7 | 15.7 | –
COc1ccc(S(=O)(=O)c2ccccc2-c2cn(-c3cc(OC)ccc3OC)nn2)cc1 [Compound 5cy, 1-(2,5-Dimethoxyphenyl)-4-(2-((4-methoxyphenyl)sulfonyl)phenyl)-1H-1,2,3-triazole] | > 50 | > 50 | > 50 | – | – | > 50 | > 50 | > 50 | –
COc1ccc(OC)c(-n2cc(-c3ccccc3Sc3ccc(C(F)(F)F)cc3)nn2)c1 [Compound 5dx, 1-(2,5-Dimethoxyphenyl)-4-(2-((4-(trifluoromethyl)phenyl)thio)phenyl)-1H-1,2,3-triazole] | > 50 | > 50 | 46.4 | – | – | 46.4 | 46.4 | 46.4 | –
COc1ccc(OC)c(-n2cc(-c3ccccc3Sc3ccc(N)cc3)nn2)c1 [Compound 5ex, 4-((2-(1-(2,5-Dimethoxyphenyl)-1H-1,2,3-triazol-4-yl)phenyl)thio)aniline] | > 50 | > 50 | > 50 | – | – | > 50 | > 50 | > 50 | –
COc1ccc(OC)c(-n2cc(-c3ccccc3Sc3ccc(C(=O)O)cc3)nn2)c1 [Compound 5fx, 4-((2-(1-(2,5-Dimethoxyphenyl)-1H-1,2,3-triazol-4-yl)phenyl)thio)benzoic Acid] | > 50 | > 50 | 4.5 | 4.5 | 4.5 | 4.5 | 4.5 | 4.5 | –
COc1ccc(OC)c(-n2cc(-c3ccccc3S(=O)(=O)c3ccc(C(=O)O)cc3)nn2)c1 [Compound 5fy, 4-((2-(1-(2,5-Dimethoxyphenyl)-1H-1,2,3-triazol-4-yl)phenyl)sulfonyl)benzoic Acid] | > 50 | > 50 | > 50 | – | – | > 50 | > 50 | > 50 | –
COc1cccc(OC)c1-n1cc(-c2ccccc2S(=O)(=O)c2ccc([N+](=O)[O-])cc2)nn1 [Compound 6ay, 1-(2,6-Dimethoxyphenyl)-4-(2-((4-nitrophenyl)sulfonyl)phenyl)-1H-1,2,3-triazole] | > 50 | > 50 | > 50 | – | – | > 50 | > 50 | > 50 | –
COC(=O)c1ccc(S(=O)(=O)c2ccccc2-c2cn(-c3c(OC)cccc3OC)nn2)cc1 [Compound 6by, Methyl 4-((2-(1-(2,6-dimethoxyphenyl)-1H-1,2,3-triazol-4-yl)phenyl)sulfonyl)benzoate] | > 50 | > 50 | > 50 | – | – | > 50 | > 50 | > 50 | –
COc1ccc(S(=O)(=O)c2ccccc2-c2cn(-c3c(OC)cccc3OC)nn2)cc1 [Compound 6cy, 1-(2,6-Dimethoxyphenyl)-4-(2-((4-methoxyphenyl)sulfonyl)phenyl)-1H-1,2,3-triazole] | > 50 | > 50 | > 50 | – | – | > 50 | > 50 | > 50 | –
COc1cccc(OC)c1-n1cc(-c2ccccc2S(=O)(=O)c2ccc(N)cc2)nn1 [Compound 6ey, 4-((2-(1-(2,6-Dimethoxyphenyl)-1H-1,2,3-triazol-4-yl)phenyl)sulfonyl)aniline] | > 50 | > 50 | 1.5 | 1.5 | 1.5 | 1.5 | 1.5 | 1.5 | 1 to 3
COc1cccc(OC)c1-n1cc(-c2ccccc2Sc2ccc(C(=O)O)cc2)nn1 [Compound 6fx, 4-((2-(1-(2,6-Dimethoxyphenyl)-1H-1,2,3-triazol-4-yl)phenyl)thio)benzoic Acid] | > 50 | > 50 | 1.9 | 1.9 | 1.9 | 1.9 | 1.9 | 1.9 | 1 to 3
COc1cccc(OC)c1-n1cc(-c2ccccc2S(=O)(=O)c2ccc(C(=O)O)cc2)nn1 [Compound 6fy, 4-((2-(1-(2,6-Dimethoxyphenyl)-1H-1,2,3-triazol-4-yl)phenyl)sulfonyl)benzoic Acid] | > 50 | > 50 | 1.2 | 1.2 | 1.2 | 1.2 | 1.2 | 1.2 | 1 to 3
COc1cccc(F)c1-n1cc(-c2ccccc2Sc2ccc([N+](=O)[O-])cc2)nn1 [Compound 7ax, 1-(2-Fluoro-6-methoxyphenyl)-4-(2-((4-nitrophenyl)thio)phenyl)-1H-1,2,3-triazole] | > 50 | > 50 | 3.9 | 3.9 | 3.9 | 3.9 | 3.9 | 3.9 | –
COc1cccc(F)c1-n1cc(-c2ccccc2S(=O)(=O)c2ccc([N+](=O)[O-])cc2)nn1 [Compound 7ay, 1-(2-Fluoro-6-methoxyphenyl)-4-(2-((4-nitrophenyl)sulfonyl)phenyl)-1H-1,2,3-triazole] | > 50 | > 50 | > 50 | – | – | > 50 | > 50 | > 50 | –
COC(=O)c1ccc(Sc2ccccc2-c2cn(-c3c(F)cccc3OC)nn2)cc1 [Compound 7bx, Methyl 4-((2-(1-(2-fluoro-6-methoxyphenyl)-1H-1,2,3-triazol-4-yl)phenyl)thio)benzoate] | > 50 | > 50 | 7.8 | 7.8 | 7.8 | 7.8 | 7.8 | 7.8 | –
COc1ccc(S(=O)(=O)c2ccccc2-c2cn(-c3c(F)cccc3OC)nn2)cc1 [Compound 7cy, 1-(2-Fluoro-6-methoxyphenyl)-4-(2-((4-methoxyphenyl)sulfonyl)phenyl)-1H-1,2,3-triazole] | > 50 | > 50 | > 50 | – | – | > 50 | > 50 | > 50 | –
